In patent US20250339399A1, “SUPRAMOLECULAR SELF-ASSEMBLY SYSTEM” (Beijing Creatron Institute of Pharmaceutical Research Co., …, priority 2022, published 2025):

Tests used:
[1] = Guest molecule concentration after incubation in initial medium without polymer (Comparative Example 1); type: physicochemical; details: 37° C.
Protocol: pH 2.0 hydrochloric acid, pH 4.5 acetate, and pH 6.5, pH 6.8, or pH 7.4 phosphate buffer solutions were prepared. The selection of each initial medium followed the principle that the solubility in the initial medium of the selected targets (or active ingredients) should low enough, but should meet the detection sensitivity and accuracy requirements of the corresponding analytical methods. Each buffer as initial media was placed in a 50 ml test tube with a stopper, shaken in a constant temperature air shaker at 37° C.±0.5° C., with an amplitude of 200 rpm, and incubated for 1 hour. […] Samples were taken at 0.5 h, 3 h and 6 h after incubation, centrifuged at 37° C., 13000 rpm for 5 minutes, and the supernatant was diluted at least 10 times with the mobile phase under the target analyte analytical method, filtered, the initial filtrate was discarded, and the continued filtrate was used as the test solution for injection analysis. The corresponding HPLC method under each target object item in Table 8 was used to determine the content of each target substance. When the solubility of the target in the initial medium is below the quantitative limit of the analytical method, a small amount of surfactant, such as sodium dodecyl sulfate (SDS), Tween20, or Tween80, can be added appropriately.
The above targets were incubated at 37° C.±0.5° C. for different time in an initial medium without any polymer. Each solid target formed by molecular stacking was removed by centrifugation, and the supernatant was analyzed using the HPLC method under each target item (see Table 8). The theoretical addition concentration of each target when its supramolecular self-assembly system was built was determined by its maximum dose in clinical use.

[2] = Binary supramolecular self-assembly systems of polymer and target: guest concentration over incubation time (Comparative Example 2); type: physicochemical
Protocol: Experiments were conducted according to the steps in Comparative Example 1, and quantitative analysis was carried out using the analytical method for each target to investigate the regulation ability […] stacking.

[3] = cited from earlier work
[4] = binary system with 0.5% polymer 101, incubation 0.5 h
[5] = binary system with 0.5% polymer 101, incubation 3 h
[6] = binary system with 0.5% polymer 101, incubation 6 h
[7] = binary system with 0.5% polymer 102, incubation 0.5 h
[8] = binary system with 0.5% polymer 102, incubation 3 h
[9] = binary system with 0.5% polymer 102, incubation 6 h
[10] = binary system with 0.5% polymer 103, incubation 0.5 h
[11] = binary system with 0.5% polymer 103, incubation 3 h
[12] = binary system with 0.5% polymer 103, incubation 6 h
[13] = binary system with 0.5% polymer 106, incubation 0.5 h
[14] = binary system with 0.5% polymer 106, incubation 3 h
[15] = binary system with 0.5% polymer 106, incubation 6 h
[16] = binary system with 0.5% polymer 107, incubation 0.5 h
[17] = binary system with 0.5% polymer 107, incubation 3 h
[18] = binary system with 0.5% polymer 107, incubation 6 h
[19] = binary system with 0.5% polymer 110, incubation 0.5 h
[20] = binary system with 0.5% polymer 110, incubation 3 h
[21] = binary system with 0.5% polymer 110, incubation 6 h
[22] = binary system with 0.5% polymer 104, incubation 0.5 h
[23] = binary system with 0.5% polymer 104, incubation 3 h
[24] = binary system with 0.5% polymer 104, incubation 6 h

Row | Concentration of the target in the solution measured after different incubation time [2, 4] | Concentration of the target in the solution measured after different incubation time [2, 5] | Concentration of the target in the solution measured after different incubation time [2, 6] | Concentration of the target in the solution measured after different incubation time [2, 7] | Concentration of the target in the solution measured after different incubation time [2, 8] | Concentration of the target in the solution measured after different incubation time [2, 9] | Concentration of the target in the solution measured after different incubation time [2, 10] | Concentration of the target in the solution measured after different incubation time [2, 11] | Concentration of the target in the solution measured after different incubation time [2, 12] | Concentration of the target in the solution measured after different incubation time [2, 16] | Concentration of the target in the solution measured after different incubation time [2, 17] | Concentration of the target in the solution measured after different incubation time [2, 18] | Concentration of the target in the solution measured after different incubation time [2, 19] | Concentration of the target in the solution measured after different incubation time [2, 20] | Concentration of the target in the solution measured after different incubation time [2, 21] | Structure (SMILES) | Concentration of the target in the solution measured after different incubation time [2, 13] | Concentration of the target in the solution measured after different incubation time [2, 14] | Concentration of the target in the solution measured after different incubation time [2, 15] | LogD7.4 or Log P [3] | Concentration of the target in the solution measured after different incubation time [2, 22] | other results
1 | 221000 ng/mL | 187900 ng/mL | 171700 ng/mL | 24100 ng/mL | 23200 ng/mL | 28600 ng/mL | 51800 ng/mL | 39800 ng/mL | 39100 ng/mL | 109200 ng/mL | 93900 ng/mL | 88600 ng/mL | 27100 ng/mL | 23600 ng/mL | 26300 ng/mL | COC1=CC(=O)C[C@@H](C)[C@]12Oc1c(Cl)c(OC)cc(OC)c1C2=O [Griseofulvin, griseofulvin] | 67900 ng/mL | 62800 ng/mL | 60700 ng/mL | 2.17 | – | Concentration of guest molecule measured after different incubated time ([1]; 0.5 h, 0.1% SDS in pH 6.8 phosphate buffer): 35600 ng/mL; Concentration of guest molecule measured after different incubated time ([1]; 3 h, 0.1% SDS in pH 6.8 phosphate buffer): 27400 ng/mL; Concentration of guest molecule measured after different incubated time ([1]; 6 h, 0.1% SDS in pH 6.8 phosphate buffer): 24100 ng/mL
2 | 57600 ng/mL | 44800 ng/mL | 23100 ng/mL | 52900 ng/mL | 66100 ng/mL | 67300 ng/mL | 14600 ng/mL | 23100 ng/mL | 27400 ng/mL | 34500 ng/mL | 36800 ng/mL | 35200 ng/mL | – | – | – | CC(C)OC(=O)CCC/C=C\C[C@@H]1[C@@H](/C=C/C(F)(F)COc2ccccc2)[C@H](O)C[C@@H]1O [Tafluprost, tafluprost] | – | – | – | 4.25 | 26700 ng/mL | Concentration of guest molecule measured after different incubated time ([1]; 0.5 h, pH 7.4 phosphate buffer): 18600 ng/mL; Concentration of guest molecule measured after different incubated time ([1]; 3 h, pH 7.4 phosphate buffer): 9300 ng/mL; Concentration of guest molecule measured after different incubated time ([1]; 6 h, pH 7.4 phosphate buffer): 6800 ng/mL; Concentration of the target in the solution measured after different incubation time [2, 23]: 24200 ng/mL; Concentration of the target in the solution measured after different incubation time [2, 24]: 17300 ng/mL; Concentration of guest molecule in solution ([2]; binary: 0.25% 102H, 6 h): 67300 ng/mL; Log P ([3]; prost derivatives, Table 31 (relevant information)): Log P:4.29 D-H: 2 R-H:4
3 | 233600 ng/mL | 249500 ng/mL | 252600 ng/mL | 151600 ng/mL | 254900 ng/mL | 272100 ng/mL | 78600 ng/mL | 72900 ng/mL | 59500 ng/mL | 152200 ng/mL | 153100 ng/mL | 156800 ng/mL | 385500 ng/mL | 534600 ng/mL | 566200 ng/mL | CC1(C)CCC(CN2CCN(c3ccc(C(=O)NS(=O)(=O)c4ccc(NCC5CCOCC5)c([N+](=O)[O-])c4)c(Oc4cnc5[nH]ccc5c4)c3)CC2)=C(c2ccc(Cl)cc2)C1 [Venetoclax, venetoclax] | 232200 ng/mL | 250500 ng/mL | 156800 ng/mL | 6.88 | – | Concentration of guest molecule measured after different incubated time ([1]; 0.5 h, pH 6.8 phosphate buffer): 19800 ng/mL; Concentration of guest molecule measured after different incubated time ([1]; 3 h, pH 6.8 phosphate buffer): 12400 ng/mL; Concentration of guest molecule measured after different incubated time ([1]; 6 h, pH 6.8 phosphate buffer): 9600 ng/mL

Row | Structure (SMILES) | Concentration of the target in the solution measured after different incubation time [2, 4] | Concentration of the target in the solution measured after different incubation time [2, 5] | Concentration of the target in the solution measured after different incubation time [2, 6] | Concentration of the target in the solution measured after different incubation time [2, 7] | Concentration of the target in the solution measured after different incubation time [2, 8] | Concentration of the target in the solution measured after different incubation time [2, 9] | Concentration of the target in the solution measured after different incubation time [2, 10] | Concentration of the target in the solution measured after different incubation time [2, 11] | Concentration of the target in the solution measured after different incubation time [2, 12] | Concentration of the target in the solution measured after different incubation time [2, 16] | Concentration of the target in the solution measured after different incubation time [2, 17] | Concentration of the target in the solution measured after different incubation time [2, 18] | Concentration of the target in the solution measured after different incubation time [2, 19] | Concentration of the target in the solution measured after different incubation time [2, 20] | Concentration of the target in the solution measured after different incubation time [2, 21] | Concentration of the target in the solution measured after different incubation time [2, 13] | Concentration of the target in the solution measured after different incubation time [2, 14] | Concentration of the target in the solution measured after different incubation time [2, 15] | LogD7.4 or Log P [3] | Concentration of the target in the solution measured after different incubation time [2, 22] | other results
4 | CCC(C)n1ncn(-c2ccc(N3CCN(c4ccc(OCC5COC(Cn6cncn6)(c6ccc(Cl)cc6Cl)O5)cc4)CC3)cc2)c1=O (stereo not shown) [Itraconazole, itraconazole] | 47900 ng/mL | 4800 ng/mL | 3000 ng/mL | 69700 ng/mL | 34500 ng/mL | 24700 ng/mL | 14100 ng/mL | 8600 ng/mL | 1900 ng/mL | 13500 ng/mL | 1700 ng/mL | 1200 ng/mL | – | – | – | 43300 ng/mL | 8300 ng/mL | 6400 ng/mL | 7.31 | 31500 ng/mL | Concentration of guest molecule measured after different incubated time ([1]; 0.5 h, 0.05% SDS in pH 6.8 phosphate buffer): 10700 ng/mL; Concentration of guest molecule measured after different incubated time ([1]; 3 h, 0.05% SDS in pH 6.8 phosphate buffer): 2900 ng/mL; Concentration of guest molecule measured after different incubated time ([1]; 6 h, 0.05% SDS in pH 6.8 phosphate buffer): 2700 ng/mL; Concentration of the target in the solution measured after different incubation time [2, 23]: 7100 ng/mL; Concentration of the target in the solution measured after different incubation time [2, 24]: 3100 ng/mL
5 | O=C(O)[C@H]1O[C@@H](Oc2cc3oc(-c4ccc(O)cc4)cc(=O)c3c(O)c2O)[C@H](O)[C@@H](O)[C@@H]1O [Scutellarin, scutellarin] | 210400 ng/mL | 125200 ng/mL | 110200 ng/mL | 122500 ng/mL | 102000 ng/mL | 102200 ng/mL | 40400 ng/mL | 42800 ng/mL | 42800 ng/mL | 61700 ng/mL | 41700 ng/mL | 43100 ng/mL | 95900 ng/mL | 87300 ng/mL | 78300 ng/mL | 57400 ng/mL | 60800 ng/mL | 54300 ng/mL | 0.80 | – | Concentration of guest molecule measured after different incubated time ([1]; 0.5 h, pH 6.8 phosphate buffer): 45300 ng/mL; Concentration of guest molecule measured after different incubated time ([1]; 3 h, pH 6.8 phosphate buffer): 41700 ng/mL; Concentration of guest molecule measured after different incubated time ([1]; 6 h, pH 6.8 phosphate buffer): 43100 ng/mL
